Measured values taken from patent publication US20090170934A1, “MANUFACTURING PROCESS FOR NO-DONATING COMPOUNDS SUCH AS NO-DONATING DICLOFENAC” (NICOX SA, priority 2002, published 2009).

O=C(Cc1ccccc1Nc1c(Cl)cccc1Cl)OCCOCCO[N+](=O)[O-] [Compound IVa, 2-[2-(nitrooxy)ethoxy]ethyl {2-[(2,6-dichlorophenyl)amino]phenyl}acetate]
melting point: 73 °C
